Data reported in ChEMBL document CHEMBL1201862, “PubChem BioAssay data set” (2004).
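Each compound was tested at five concentrations against cells in 96-well plates for 48 hours. At the GI50, growth is halved.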 Calls of active or inactive are those of the source. Rule as the data show it: active = GI50 up to about 1.1 µM and inactive = higher.

Experiments:
Assay in all cases: growth of human tumour cells (NCI), 48 h
HL-60 = tested on: HL-60
SK-MEL-28 = tested on: SK-MEL-28
SK-MEL-2 = tested on: SK-MEL-2
HCT-116 = tested on: HCT-116
RPMI-8226 = tested on: RPMI-8226
U-251 = tested on: U-251
LOX IMVI = tested on: LOX IMVI
MDA-MB-231 = tested on: MDA-MB-231
ACHN = tested on: ACHN
HCT-15 = tested on: HCT-15
BT-549 = tested on: BT-549
786-0 = tested on: 786-0
EKVX = tested on: EKVX
SNB-19 = tested on: SNB-19
SK-MEL-5 = tested on: SK-MEL-5
HOP-62 = tested on: HOP-62
MDA-N = tested on: MDA-N
SNB-75 = tested on: SNB-75
Malme-3M = tested on: Malme-3M
SF-295 = tested on: SF-295

| SMILES | GI50 (HL-60) | GI50 (SK-MEL-28) | GI50 (SK-MEL-2) | GI50 (HCT-116) | GI50 (RPMI-8226) | GI50 (U-251) | GI50 (LOX IMVI) | GI50 (MDA-MB-231) | GI50 (ACHN) | GI50 (HCT-15) | GI50 (BT-549) | GI50 (786-0) | GI50 (EKVX) | GI50 (SNB-19) | GI50 (SK-MEL-5) | GI50 (HOP-62) | GI50 (MDA-N) | GI50 (SNB-75) | GI50 (Malme-3M) | GI50 (SF-295) |
| --- | --- | --- | --- | --- | --- | --- | --- | --- | --- | --- | --- | --- | --- | --- | --- | --- | --- | --- | --- | --- |
| C=C(C)[C@H]1C2=CC(C)=C(O2)[C@@H](O[C@@H]2c3oc(cc3C)[C@H](C(=C)C)[C@H]3C=C(CC[C@H]2C(=C)C)C(=O)O3)[C@H](C(=C)C)CCC2=C[C@H]1OC2=O | > 100 µM (inactive) | > 100 µM (inactive) | > 100 µM (inactive) | > 100 µM (inactive) | > 100 µM (inactive) | > 100 µM (inactive) | > 100 µM (inactive) | > 100 µM (inactive) | > 100 µM (inactive) | > 100 µM | > 100 µM (inactive) | > 100 µM (inactive) | > 100 µM (inactive) | > 100 µM (inactive) | > 100 µM (inactive) | 81.1 µM (inactive) | > 100 µM (inactive) | > 100 µM (inactive) | > 100 µM (inactive) | > 100 µM (inactive) |
| CCn1c(-c2ccc(OC(C)=O)cc2)c(C)c2cc(OC(C)=O)ccc21 [ZINDOXIFENE] | 11 µM (inactive) | 16.5 µM (inactive) | 18.5 µM (inactive) | 6.84 µM (inactive) | 12.5 µM (inactive) | 11.3 µM (inactive) | 11.9 µM (inactive) | 14.6 µM (inactive) | 19.4 µM (inactive) | 3.79 µM | 29.4 µM (inactive) | 21.9 µM (inactive) | 17.9 µM (inactive) | 31 µM (inactive) | 13.8 µM (inactive) | 21.3 µM (inactive) | 17.3 µM (inactive) | 16.5 µM (inactive) | 21.7 µM (inactive) | 24 µM (inactive) |
| Nc1nc(NCc2ccccc2)cc(NCc2ccccc2)n1 | 37.8 µM (inactive) | 12 µM (inactive) | 8.81 µM (inactive) | 3.45 µM (inactive) | 3.06 µM (inactive) | 5.14 µM (inactive) | 4.23 µM (inactive) | 3.49 µM (inactive) | 7.26 µM (inactive) | 3.52 µM | 7.55 µM (inactive) | 4.92 µM (inactive) | 9.93 µM (inactive) | 8.39 µM (inactive) | 3.71 µM (inactive) | 12.8 µM (inactive) | 1.14 µM (inactive) | 3.23 µM (inactive) | 5.66 µM (inactive) | 4.91 µM (inactive) |
| Cc1nc2sc(C(=O)c3ccc(Cl)cc3)c(N)c2c(-c2ccccc2Cl)c1C(=O)Nc1ccccc1 | 11.2 µM (inactive) | 13.1 µM (inactive) | 3.08 µM (inactive) | 6.44 µM (inactive) | 23.3 µM (inactive) | 7.08 µM (inactive) | 12.2 µM (inactive) | 14.2 µM (inactive) | 21.2 µM (inactive) | 15.6 µM | 20.2 µM (inactive) | 10 µM (inactive) | 21.9 µM (inactive) | 22.2 µM (inactive) | 17.4 µM (inactive) | 15.8 µM (inactive) | 10.8 µM (inactive) | 11.4 µM (inactive) | 13 µM (inactive) | 20.7 µM (inactive) |
| CC1CSC(=S)N1C(=O)N1C(=S)SCC1C (stereo not given) | 12.1 µM (inactive) | 14.3 µM (inactive) | 21.3 µM (inactive) | 24.4 µM (inactive) | 18.7 µM (inactive) | 18.2 µM (inactive) | 20.4 µM (inactive) | 22.2 µM (inactive) | 18.5 µM (inactive) | 16.5 µM | 24.7 µM (inactive) | 27.8 µM (inactive) | 28.8 µM (inactive) | 63.8 µM (inactive) | 17 µM (inactive) | 43.4 µM (inactive) | 19.6 µM (inactive) | 23.4 µM (inactive) | 17.1 µM (inactive) | 45.8 µM (inactive) |
| N/C(=N\c1ccc(Cl)cc1)NS(=O)(=O)c1cccc2nsnc12 | 17.9 µM (inactive) | 21 µM (inactive) | 11.9 µM (inactive) | 31.8 µM (inactive) | 33.8 µM (inactive) | 19.4 µM (inactive) | 25.1 µM (inactive) | 17.9 µM (inactive) | 30.3 µM (inactive) | 30.3 µM | 25.2 µM (inactive) | 24.7 µM (inactive) | 19.7 µM (inactive) | 72.8 µM (inactive) | 16.1 µM (inactive) | 94.2 µM (inactive) | 23.7 µM (inactive) | > 100 µM (inactive) | 18 µM (inactive) | 45.5 µM (inactive) |
| O=c1c2cc([N+](=O)[O-])ccc2n(Cc2ccccc2)n1Cc1ccccc1 | 10.3 µM (inactive) | 18.5 µM (inactive) | 12.6 µM (inactive) | 16.9 µM (inactive) | 7.41 µM (inactive) | 15.1 µM (inactive) | 9.2 µM (inactive) | 12.6 µM (inactive) | 16.2 µM (inactive) | 20.1 µM | 15.3 µM (inactive) | 21.7 µM (inactive) | 17.2 µM (inactive) | 29.6 µM (inactive) | 4.75 µM (inactive) | > 31.6 µM (inactive) | 12.2 µM (inactive) | 10.4 µM (inactive) | > 17.8 µM (inactive) | 15.1 µM (inactive) |
| CCCCCCc1cc2cc(C(=O)Nc3ccccc3)c(=N)oc2cc1O | 4.08 µM (inactive) | 6.87 µM (inactive) | 2.45 µM (inactive) | 2.5 µM (inactive) | 4.08 µM (inactive) | 2.99 µM (inactive) | 3.23 µM (inactive) | 3.36 µM (inactive) | 3.44 µM (inactive) | 3.45 µM | 9.25 µM (inactive) | 3.21 µM (inactive) | 3.29 µM (inactive) | 3.33 µM (inactive) | 2.56 µM (inactive) | 2.76 µM (inactive) | 3.88 µM (inactive) | > 23 µM (inactive) | 1.98 µM (inactive) | 3.05 µM (inactive) |
| Nc1ccc2c(c1)N(C(=O)c1cc3cc(NC(=O)c4cc5ccccc5o4)ccc3[nH]1)CC2CCl (stereo not given) | 0.0416 µM (active) | 0.177 µM (active) | 0.0755 µM (active) | 0.0533 µM (active) | 0.0284 µM (active) | 0.106 µM (active) | 0.0398 µM (active) | 0.239 µM (active) | 0.0199 µM (active) | 0.0847 µM | 0.164 µM (active) | 0.0638 µM (active) | 0.262 µM (active) | 0.277 µM (active) | 0.0397 µM (active) | 0.138 µM (active) | 0.183 µM (active) | 0.153 µM (active) | 0.122 µM (active) | 0.0434 µM (active) |
| CN(C)CCn1nc(N)c2nc3cc(C(F)(F)F)ccc3nc21 | 34.6 µM (inactive) | > 100 µM (inactive) | > 100 µM (inactive) | > 100 µM (inactive) | > 100 µM (inactive) | > 100 µM (inactive) | 54.8 µM (inactive) | > 100 µM (inactive) | > 100 µM (inactive) | 67.3 µM | 99.8 µM (inactive) | > 100 µM (inactive) | > 100 µM (inactive) | > 100 µM (inactive) | > 100 µM (inactive) | 57.4 µM (inactive) | > 100 µM (inactive) | 15.5 µM (inactive) | > 100 µM (inactive) | > 100 µM (inactive) |
| Nc1cccc2cc(S(=O)(=O)Nc3ccc(C(=O)O)cc3)ccc12 | > 100 µM (inactive) | > 100 µM (inactive) | > 100 µM (inactive) | > 100 µM (inactive) | > 100 µM (inactive) | > 100 µM (inactive) | > 100 µM (inactive) | > 100 µM (inactive) | > 100 µM (inactive) | > 100 µM | > 100 µM (inactive) | > 100 µM (inactive) | > 100 µM (inactive) | > 100 µM (inactive) | > 100 µM (inactive) | > 100 µM (inactive) | > 100 µM (inactive) | 98.2 µM (inactive) | > 100 µM (inactive) | > 100 µM (inactive) |
| C=C(c1ccccc1)[C@@]1(O)CC[C@@H]1N(CC#N)Cc1ccccc1 | 32 µM (inactive) | 17.2 µM (inactive) | 20.9 µM (inactive) | 16.6 µM (inactive) | 20 µM (inactive) | 53.3 µM (inactive) | 19.1 µM (inactive) | 14 µM (inactive) | 20.8 µM (inactive) | 18.7 µM | 19.9 µM (inactive) | 18.4 µM (inactive) | 37.7 µM (inactive) | 36.6 µM (inactive) | 15.9 µM (inactive) | 97.3 µM (inactive) | 22.3 µM (inactive) | 33.9 µM (inactive) | 3.23 µM (inactive) | 58.1 µM (inactive) |
| c1ccc2c(c1)c1c(c3ccccc32)CN2CCCC2C1 (stereo not given) | 1.41 µM (inactive) | 2.62 µM (inactive) | 2.3 µM (inactive) | 3.17 µM (inactive) | 4.24 µM (inactive) | 3.4 µM (inactive) | 3.35 µM (inactive) | 3.2 µM (inactive) | 3.01 µM (inactive) | 4.09 µM | 5.05 µM (inactive) | 3.94 µM (inactive) | 4.74 µM (inactive) | 2.66 µM (inactive) | 3.51 µM (inactive) | 2.79 µM (inactive) | 2.82 µM (inactive) | 3.01 µM (inactive) | 2.45 µM (inactive) | 3.09 µM (inactive) |
| O=C(Nc1ccccn1)c1cc2c(cc1Cl)Sc1nccn1S2(=O)=O | 23.9 µM (inactive) | 44.3 µM (inactive) | 20 µM (inactive) | 28.4 µM (inactive) | 29.7 µM (inactive) | 44.4 µM (inactive) | 26.8 µM (inactive) | 21.1 µM (inactive) | 32.1 µM (inactive) | 30.7 µM | 71.3 µM (inactive) | 35.1 µM (inactive) | 38.2 µM (inactive) | 56.1 µM (inactive) | 25.6 µM (inactive) | 39.6 µM (inactive) | 36.3 µM (inactive) | 33.2 µM (inactive) | 63 µM (inactive) | 36.6 µM (inactive) |
